Reference: paper PMC6259618 (Molecules, 2011)
Read-outs that look alike come from different tables or passages of the source. Where a SMILES comes first, the peptide text is derived from it. Where no end group is shown, it is not given here. The star is where a group is joined. DOTA = O=C(O)CN1CCN(CC(=O)O)CCN(CC(=O)*)CCN(CC(=O)O)CC1

What was measured:
[1] = in vivo; settings: male, BALB/c nu/nu, mouse, iv, total radioactivity; for tissue to tissue ratio at 0.25 h / tissue to tissue ratio at 1 h: Tumor-to-organ ratio
Method: (§1) Male 6-week-old BALB/c nu/nu mice were obtained from Charles River WIGA (Sulzfeld, Germany) and housed in VentiRacks. For inoculation of the tumors, a Matrigel matrix/cell (5 × 10^6 cells) suspension was injected subcutaneously into the flank of the animals. Tumors were grown up to a size of ~1.0 cm^3. ^111In-labeled or ^131I-labeled peptide was injected via the tail vein into the animals, carrying PC-3 prostate tumors. At defined time points post injection, the mice were sacrificed. Tumor, blood and selected tissues (heart, lung, spleen, liver, kidney, muscle, intestinum and brain) were removed, drained of blood, weighed, and the radioactivity was measured with a γ-counter (LB 951G, Berthold Technologies). The percentage injected dose per gram of tissue (%ID/g) was calculated. All animal experiments were carried out in conformity with the German law for protection of animals and are in compliance with European laws.

[2] = system: human prostate carcinoma PC-3 cells; assay type: binding; settings: for Binding inhibition by unlabeled DUP-1: ^125I-labeled ligand on PC-3 cells, competitor unlabeled DUP-1 at 10^-4 M
Method: The human prostate carcinoma cell line PC-3 (American Type Culture Collection, Manassas, VA, USA) was cultivated at 37 °C in a 5% CO2 incubator in RPMI 1640 with Glutamax containing 10% FCS (Invitrogen, Karlsruhe, Germany) and 25 mmol/L HEPES.
200,000 cells were seeded in 6-well plates and cultivated for 24 hours. The medium was replaced by 1 mL fresh medium (without FCS). ^125I-labeled or ^111In-labeled peptide was added to the cell culture (1–2 × 10^6 cpm per well) and incubated for various time periods. Thereafter, the cells were washed thrice with 1 mL phosphate buffer saline (PBS) and subsequently lysed with 0.3 mol/L NaOH (0.5 mL). Radioactivity was measured with a γ-counter and calculated as percentage applied dose per 10^6 cells. For competition experiments co-incubation was performed with the unlabeled peptide at a defined concentration. If BSA or dry milk powder was used as blocking agents, it was added to a final concentration of 1% in medium without FCS.

[3] = system: human prostate carcinoma PC-3 cells; settings: for Incubation time to maximal radioligand binding / binding saturation: ^111In- or ^125I-labeled peptide, medium without FCS, gamma-counter; for Binding as % of the native molecule (DUP-1) capacity: ^125I-labeled
Method: Direct radiolabeling with ^125I was performed on the tyrosine moiety using the chloramine-T method. A 10^−3 M aqueous solution of the respective peptide (5–25 µL, 5–25 nmol) was added to 0.25 M phosphate buffer (25 µL, pH 7.5). A radioactivity amount of 1–10 MBq ^125I- or ^131I- was added to this mixture and vortexed for 30 sec. The labeling reaction was quenched by adding 10 µL of a saturated aqueous methionine solution. The radiolabeled peptide was purified by HPLC on a Lichrosorb RP-select B 5 µm, 250 × 4 mm column using a linear solvent gradient system.
Radiolabeling was performed by complexation with ^111In-chloride. One microliter of a 10^−3 M solution of DOTA-Lys-DUP-1 in 50% dimethyl sulfoxide in water was mixed with sodium acetate buffer (25 µL, pH 5), and 10 MBq ^111InCl3 (PerkinElmer, Rodgau) was added. The solution was heated at 95 °C for 25 min. Quality control was performed by HPLC showing a radiochemical purity >95%.

[4] = system: human prostate carcinoma PC-3 cells; parameters: method as in PMID 15671538; settings: ^125I-DUP-1, 'has been shown to be'; earlier work; cited from earlier work
[5] = native DUP-1, not among the peptides tested here; earlier work; cited from earlier work
[6] = system: PC-3 tumors; settings: cited from earlier work; for Tumor binding: iodinated native ligand
Method: A linear peptide with affinity for prostate carcinoma was identified in our group using phage display techniques. The peptide, […], was isolated on prostate-specific membrane antigen-negative cells and evaluated both in vitro and in vivo. Chemical synthesized […] was tested for binding affinity, specificity, kinetics and internalization. In vivo tumor accumulation and organ distribution was evaluated in a nude mouse model, carrying subcutaneously human prostate carcinoma cells. […] A possible explanation for the rapid clearance is the higher polarity of the DOTA conjugate.

[7] = human serum; settings: 37 °C, up to 6 hours
[8] = system: PC-3 tumors; assay: in vivo; settings: mouse
Method: as §1

[9] = PC-3 cells, after 10 min incubation
[10] = PC-3 cells, after 60 min incubation
[11] = ^125I-labeled fragments, PC-3 cells, after binding saturation

Work on `C[C@H](NC(=O)[C@H](CCCNC(=N)N)NC(=O)[C@H](CC(N)=O)NC(=O)[C@@H]1CCCN1C(=O)[C@H](CCCNC(=N)N)NC(=O)[C@@H](N)Cc1ccccc1)C(=O)N[C@@H](CCC(N)=O)C(=O)N[C@@H](CC(=O)O)C(=O)N[C@@H](Cc1ccc(O)cc1)C(=O)N[C@@H](CC(N)=O)C(=O)N[C@H](C(=O)N[C@@H](CC(N)=O)C(=O)N[C@@H](CCCCNC(=O)CN1CCN(CC(=O)O)CCN(CC(=O)O)CCN(CC(=O)O)CC1)C(N)=O)[C@@H](C)O` (111In complex, metal not drawn) [DOTA-Lys-DUP-1] (H-FRPNRAQDYNTNK(DOTA)-NH2) yielded a tissue uptake at 0.25 h [1] of 2.1 %ID/g, a tissue uptake at 1 h [1] of 0.14 %ID/g and a tissue to tissue ratio at 0.25 h ([1]; Blood) of 0.79 ± 0.198. For the same compound, the tissue to tissue ratio at 1 h ([1]; Blood) was 3.45 ± 0.261, the tissue to tissue ratio at 0.25 h ([1]; Brain) was 18.6 ± 4.05 and the tissue to tissue ratio at 1 h ([1]; Brain) was 14.8 ± 4.73. The tissue to tissue ratio at 0.25 h ([1]; Heart) was 1.99 ± 0.459, the tissue to tissue ratio at 1 h ([1]; Heart) was 7.79 ± 0.578 and the tissue to tissue ratio at 0.25 h ([1]; Intestine) was 2.46 ± 0.391. It also gave a tissue to tissue ratio at 1 h ([1]; Intestine) of 4.79 ± 2.13, a tissue to tissue ratio at 0.25 h ([1]; Kidney) of 0.124 ± 0.028 and a tissue to tissue ratio at 1 h ([1]; Kidney) of 0.063 ± 0.012. For the same compound, the tissue to tissue ratio at 0.25 h ([1]; Liver) was 2.35 ± 0.196, the tissue to tissue ratio at 1 h ([1]; Liver) was 3.81 ± 0.07 and the tissue to tissue ratio at 0.25 h ([1]; Lung) was 0.823 ± 0.167. For the same compound, the tissue to tissue ratio at 1 h ([1]; Lung) was 2.9 ± 0.142, the tissue to tissue ratio at 0.25 h ([1]; Muscle) was 3.39 ± 0.833 and the tissue to tissue ratio at 1 h ([1]; Muscle) was 8.05 ± 6.85. For the same compound, the tissue to tissue ratio at 0.25 h ([1]; Spleen) was 3.02 ± 0.793, the tissue to tissue ratio at 1 h ([1]; Spleen) was 5.71 ± 1.09 and the tissue to tissue ratio at 0.25 h ([1]; Tumor) was 1. It also gave a tissue to tissue ratio at 1 h ([1]; Tumor) of 1 and an IC50 ([2]; 24 h) of 3.3 µM.
In the case of “C-FRPNRAQDYNTN-C (disulfide) [cDUPc, DUP-1 with N- and C-terminal cysteines, cyclized via a disulfide bridge]”, the “Incubation time to maximal radioligand binding / binding saturation” value ([3]; PC-3 cells) is reported as 60 min, the “Binding as % of the native molecule (DUP-1) capacity” value (“Binding as % of the native molecule” below) [3, 9] is reported as “about 7%” and the “Binding as % of the native molecule” value [3, 10] is reported as “about 19%”. For the same compound, the “Binding inhibition by unlabeled DUP-1” value [2] was “up to 90%”.
For “FRPNRAQDYNTN [DUP-1, tested ^125I-/^131I-labeled]”, the IC50 [4] is listed as 0.177 µM, the “Incubation time to maximal radioligand binding / binding saturation” value ([3]; PC-3 cells) is listed as 5 min and the “Binding, percentage applied dose per 10^6 cells” value ([3]; PC-3 cells, radiolabeled peptide, maximal binding) is listed as “about 12 % applied dose per 10^6 cells”. The Serum half life [5] was 2 min, the Tumor binding ([6]; 15 min circulation in mice) was “about 7%” and the Tumor binding ([6]; 45 min circulation in mice) was “about 4%”. For the same compound, the Kidney radioactivity ([6]; iodinated peptide, 15 min) was “about 8 % ID/g” and the “Increase of radioligand-binding in the prostate tumor compared to normal prostate tissue” value ([6]; organ distribution, nude mouse model) was “up to 300%”.
In the case of FRPNRAY [DUP-1-6-Y], the “Binding as % of the leader peptide DUP-1” value [3] is reported as “about 82%”.
For “H-FRPNRAQDYNTNK(DOTA)-NH2 (SMILES C[C@H](NC(=O)[C@H](CCCNC(=N)N)NC(=O)[C@H](CC(N)=O)NC(=O)[C@@H]1CCCN1C(=O)[C@H](CCCNC(=N)N)NC(=O)[C@@H](N)Cc1ccccc1)C(=O)N[C@@H](CCC(N)=O)C(=O)N[C@@H](CC(=O)O)C(=O)N[C@@H](Cc1ccc(O)cc1)C(=O)N[C@@H](CC(N)=O)C(=O)N[C@H](C(=O)N[C@@H](CC(N)=O)C(=O)N[C@@H](CCCCNC(=O)CN1CCN(CC(=O)O)CCN(CC(=O)O)CCN(CC(=O)O)CC1)C(N)=O)[C@@H](C)O)”, the cleaved bond [7] was “phenylalanine1-R2, first_seen, 5 min”.
In the case of “NRAQDY [DUP-4-9, fragment NRAQDY, middle part of DUP-1]”, the “Incubation time to maximal radioligand binding / binding saturation” value ([3]; PC-3 cells) is reported as 30 min, the “Binding as % of the leader peptide DUP-1” value [3, 11] is reported as “about 70%” and the Activity in kidneys [8] is reported as 15.48 % ID/g. The Radioactivity in blood [8] was “about 5.5 % ID/g”, the IC50 ([2]; ^125I-labeled DUP-4-9 on PC-3 cells, unlabeled peptide as competitor, read-out: IC50) was 3.5 µM and the “Binding inhibition by unlabeled DUP-1” value [2] was “about 99%”.
For QDYNTN [DUP-7-12], the “Binding as % of the leader peptide DUP-1” value [3, 11] was “reduced binding capacity to the background level”.
With “fRPNRAQDYNTN [dPhe-DUP-1, DUP-1 with first N-terminal amino acid 1Phe replaced by the D-isoform]” the “Incubation time to maximal radioligand binding / binding saturation” value ([3]; PC-3 cells) was 60 min, the “In vitro binding capacity relative to DUP-1” value ([3]; PC-3 cells, summary in discussion, incubation time not printed at place) was “about 25%” and the “Binding as % of the native molecule” value [3, 9] was “about 8.5%”. The “Binding as % of the native molecule” value [3, 10] was “about 25%” and the “Binding inhibition by unlabeled DUP-1” value [2] was “up to 94%”.
